# In ChEMBL document CHEMBL2073980, “Molecular cloning and characterization of the murine bile salt export pump” (Gene, 2000):
# Tests used:
# Type in all cases: functional, cell membranes, Membrane vesicle
# Design in all cases: scale not given: the % may be the effect or the level left
# [1] = molecular target: T1, Bile salt export pump (Mus musculus, UniProt Q9QY30); assay: TP_TRANSPORTER: inhibition of Taurocholate uptake (Taurochorate: 5 uM, UDCA: 50 uM) in membrane vesicles isolated from Bsep-expressing Balb-3T3 cells; details: balb/3t3, 50 µM
# T1 sequence (Q9QY30 whole entry): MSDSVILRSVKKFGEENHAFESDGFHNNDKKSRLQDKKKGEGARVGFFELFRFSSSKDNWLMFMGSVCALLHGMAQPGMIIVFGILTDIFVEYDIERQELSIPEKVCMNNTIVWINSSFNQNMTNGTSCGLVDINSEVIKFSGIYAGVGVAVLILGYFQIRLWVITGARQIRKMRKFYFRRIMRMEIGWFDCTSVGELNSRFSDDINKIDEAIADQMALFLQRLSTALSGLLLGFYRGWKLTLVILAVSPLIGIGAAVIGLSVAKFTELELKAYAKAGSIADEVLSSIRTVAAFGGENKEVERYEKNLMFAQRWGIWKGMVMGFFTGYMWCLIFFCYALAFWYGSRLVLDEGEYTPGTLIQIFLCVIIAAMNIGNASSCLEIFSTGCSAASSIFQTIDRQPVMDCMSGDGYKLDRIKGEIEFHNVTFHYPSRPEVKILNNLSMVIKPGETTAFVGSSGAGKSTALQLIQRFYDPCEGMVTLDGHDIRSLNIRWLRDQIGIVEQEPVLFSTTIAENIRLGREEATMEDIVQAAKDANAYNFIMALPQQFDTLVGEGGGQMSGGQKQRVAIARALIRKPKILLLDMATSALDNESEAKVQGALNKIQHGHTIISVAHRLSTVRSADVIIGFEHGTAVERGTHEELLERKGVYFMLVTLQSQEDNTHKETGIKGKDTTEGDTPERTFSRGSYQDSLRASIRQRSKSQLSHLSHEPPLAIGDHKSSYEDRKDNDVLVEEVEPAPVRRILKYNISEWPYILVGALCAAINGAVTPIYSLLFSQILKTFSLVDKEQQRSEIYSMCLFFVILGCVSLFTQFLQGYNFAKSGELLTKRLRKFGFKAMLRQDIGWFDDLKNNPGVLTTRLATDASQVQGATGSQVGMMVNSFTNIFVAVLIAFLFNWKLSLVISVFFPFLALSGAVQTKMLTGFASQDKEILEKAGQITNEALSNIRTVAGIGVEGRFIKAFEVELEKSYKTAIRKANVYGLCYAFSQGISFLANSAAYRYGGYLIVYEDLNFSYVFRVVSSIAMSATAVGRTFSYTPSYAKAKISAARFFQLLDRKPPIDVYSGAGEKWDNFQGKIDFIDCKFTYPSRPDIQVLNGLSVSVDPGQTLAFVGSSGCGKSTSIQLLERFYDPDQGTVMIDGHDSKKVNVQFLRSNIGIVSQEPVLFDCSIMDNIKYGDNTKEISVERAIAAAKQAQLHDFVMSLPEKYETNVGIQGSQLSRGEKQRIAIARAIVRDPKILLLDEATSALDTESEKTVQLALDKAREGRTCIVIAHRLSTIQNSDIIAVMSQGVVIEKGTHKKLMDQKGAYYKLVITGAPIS
# [2] = molecular target: T2, Bsep (bile salt export pump) (Mus musculus, UniProt Q9QY30); assay: TP_TRANSPORTER: inhibition of Taurocholate uptake (Taurochorate: 5 uM, TDCA: 50 uM) in membrane vesicles isolated from Bsep-expressing Balb-3T3 cells; details: probe taurocholate, read-out: Activity
# T2 sequence (Q9QY30 whole entry): T1 sequence (Q9QY30 whole entry)
# [3] = molecular target: T2, Bsep (bile salt export pump); assay: TP_TRANSPORTER: inhibition of Taurocholate uptake (Taurochorate: 5 uM, CDCA: 50 uM) in membrane vesicles isolated from Bsep-expressing Balb-3T3 cells; details: probe taurocholate, read-out: Activity
# [4] = molecular target: T2, Bsep (bile salt export pump); assay: TP_TRANSPORTER: inhibition of Taurocholate uptake (Taurochorate: 5 uM, TCDC: 50 uM) in membrane vesicles isolated from Bsep-expressing Balb-3T3 cells; details: probe taurocholate, read-out: Activity
structure (smiles),measurement,setting,value
C[C@H](CCC(=O)O)[C@H]1CC[C@H]2[C@@H]3[C@@H](O)C[C@@H]4C[C@H](O)CC[C@]4(C)[C@H]3CC[C@]12C [URSODIOL],Activity,[1],51%
C[C@H](CCC(=O)NCCS(=O)(=O)O)[C@H]1CC[C@H]2[C@@H]3CC[C@@H]4C[C@H](O)CC[C@]4(C)[C@H]3C[C@H](O)[C@]12C [TAURODEOXYCHOLIC ACID],activity at 50 µM,[2],5%
C[C@H](CCC(=O)O)[C@H]1CC[C@H]2[C@@H]3[C@H](O)C[C@@H]4C[C@H](O)CC[C@]4(C)[C@H]3CC[C@]12C [CHENODIOL],activity at 50 µM,[3],11%
C[C@H](CCC(=O)NCCS(=O)(=O)O)[C@H]1CC[C@H]2[C@@H]3[C@H](O)C[C@@H]4C[C@H](O)CC[C@]4(C)[C@H]3CC[C@]12C [TAUROCHENODEOXYCHOLATE],activity at 50 µM,[4],25%
